Here are results for 27 compounds from patent US20250163067A1, “NUCLEOBASE-SUBSTITUTED PIPERIDINYL-PYRIDINES AND RELATED COMPOUNDS AND THEIR USE IN TREATING DISEASES AND CONDITIONS” (K36 Therapeutics, Inc., priority 2023, published 2025).

This assay has as its target recombinant human NSD2 (Homo sapiens (Human), UniProt O96028). The assay can be described thus: NSD2 inhibitory activity, modified RBC HotSpot HMT Assay. It is filed as biochemical. Conditions: recombinant human NSD2 (amino acids 2-end) 2 nM, chicken oligonucleosomes 0.05 mg/ml, 3H-SAM 1 μM, 1 hour at 30° C. The procedure:
Exemplary compounds were tested for NSD2 inhibitory activity using a modified RBC HotSpot HMT Assay.
A reaction mixture was prepared by adding oligonucleosomes from Chicken (0.05 mg/ml) to freshly prepared reaction buffer containing 50 mM Tris-HCl (pH 8.5), 50 mM NaCl, 5 mM MgCl2, 0.01% Brij35, 1 mM DTT, and 1% DMSO followed by the addition of recombinant human NSD2, (amino acids 2-end) with N-terminal His tag (2 nM; GenBank Accession No. NM 001042424; MW=155.5 kDa; expressed in Sf9 insect cells) and gentle mixing. The test compounds were diluted in DMSO, added to the reaction mixture in nanoliter amounts by using Acoustic Technology (Echo 550, LabCyte Inc. Sunnyvale, CA) and incubated for 20 minutes at room temperature. The reaction was initiated by the addition of S-Adenosyl-L-[methyl-^3H] methionine (^3H-SAM; 1 μM), and the mixture was incubated for 1 hour at 30° C. The reaction mixture was delivered to filter paper and the methylated substrate was quantified by scintillation counting. Data analysis was performed using Excel and GraphPad Prism software for IC50 curve fits. For additional information on the histone methyltransferase assay, see, for example, Horiuchi K Y, et al., “Assay Development for Histone Methyltransferases,” Assay Drug Dev Technol. 2013 May; 11 (4): 227-36.

Sequence of recombinant human NSD2 (O96028 2-1365 limits assumed): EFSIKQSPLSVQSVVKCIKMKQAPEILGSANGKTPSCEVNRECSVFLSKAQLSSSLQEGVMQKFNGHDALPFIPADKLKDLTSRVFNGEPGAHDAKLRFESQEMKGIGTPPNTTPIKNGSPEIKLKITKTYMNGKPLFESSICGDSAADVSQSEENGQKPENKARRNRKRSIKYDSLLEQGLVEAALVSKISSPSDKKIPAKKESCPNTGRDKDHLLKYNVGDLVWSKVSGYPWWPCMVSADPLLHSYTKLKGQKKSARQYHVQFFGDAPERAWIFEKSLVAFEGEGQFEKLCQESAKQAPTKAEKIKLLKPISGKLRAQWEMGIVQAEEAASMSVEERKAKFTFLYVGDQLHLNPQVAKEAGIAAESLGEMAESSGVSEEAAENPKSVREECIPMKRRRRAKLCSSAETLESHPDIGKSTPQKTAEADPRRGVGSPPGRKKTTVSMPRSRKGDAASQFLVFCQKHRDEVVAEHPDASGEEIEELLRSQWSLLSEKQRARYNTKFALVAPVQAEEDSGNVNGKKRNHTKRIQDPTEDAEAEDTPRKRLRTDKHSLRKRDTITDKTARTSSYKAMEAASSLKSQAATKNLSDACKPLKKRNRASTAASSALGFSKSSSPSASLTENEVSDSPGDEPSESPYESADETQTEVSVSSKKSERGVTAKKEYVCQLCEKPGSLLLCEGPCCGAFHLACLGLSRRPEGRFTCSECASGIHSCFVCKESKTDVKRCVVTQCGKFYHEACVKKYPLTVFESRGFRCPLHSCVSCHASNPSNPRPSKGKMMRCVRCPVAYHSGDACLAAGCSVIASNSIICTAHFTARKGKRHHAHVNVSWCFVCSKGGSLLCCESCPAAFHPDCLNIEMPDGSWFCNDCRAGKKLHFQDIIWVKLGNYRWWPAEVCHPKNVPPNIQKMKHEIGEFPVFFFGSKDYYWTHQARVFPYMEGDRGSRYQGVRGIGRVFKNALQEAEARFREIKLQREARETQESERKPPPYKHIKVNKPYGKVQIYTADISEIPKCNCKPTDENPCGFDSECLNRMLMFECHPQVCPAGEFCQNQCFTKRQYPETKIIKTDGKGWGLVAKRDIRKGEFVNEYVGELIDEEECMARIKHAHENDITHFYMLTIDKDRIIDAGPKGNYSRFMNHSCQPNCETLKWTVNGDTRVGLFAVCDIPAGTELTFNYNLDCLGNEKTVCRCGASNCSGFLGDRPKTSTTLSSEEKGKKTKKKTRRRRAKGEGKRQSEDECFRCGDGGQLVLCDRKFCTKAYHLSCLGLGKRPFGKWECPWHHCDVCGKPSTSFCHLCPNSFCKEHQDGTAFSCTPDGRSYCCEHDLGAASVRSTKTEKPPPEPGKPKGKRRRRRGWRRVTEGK

As a reminder, the IC50 is the point on the concentration scale where inhibition reaches its midpoint. As to `COc1cc(F)c(-c2cc(Cn3ccc4ncncc43)c(N3CCC[C@](N)([C@H](O)C(F)F)C3)cn2)cc1F` [IV-5], the IC50 was not above 1000 nM.
Then `COc1cc(F)c(-c2cc(CN3Cc4nccnc4C3)c(N3CCC[C@](N)([C@H](O)C(F)F)C3)cn2)cc1F` [IV-11], with more than 1000 nM; and `COc1cc(F)c(-c2cc(Cn3ncc4cncnc43)c(N3CCC[C@](N)([C@H](O)C(F)F)C3)cn2)cc1F` [IV-10], with more than 1000 nM.
Then `COc1cc(F)c(-c2cc(Cc3cnc4c(N)nccn34)c(N3CCC[C@](N)([C@H](O)C(F)F)C3)cn2)cc1F` [Compound I-4, (S)-1-((R)-3-AMINO-1-(4-((8-AMINOIMIDAZO [1,2-A]PYRAZIN-3-YL)METHYL)-6-(2,5-DIFLUORO-4-METHOXYPHENYL)PYRIDIN-3-YL)PIPERIDIN-3-YL)-2,2-DIFLUOROETHAN-1-OL], with not above 1000 nM; and `COc1cc(F)c(-c2cc(Cn3cnc4cnncc43)c(N3CCC[C@](N)([C@H](O)C(F)F)C3)cn2)cc1F` [IV-8], with more than 1000 nM; and `COc1cc(F)c(-c2cc(Cn3cnc4c(O)nc(N)nc43)c(N3CCC[C@](N)([C@H](O)C(F)F)C3)cn2)cc1F` [IV-17], with more than 1000 nM.
Then `COc1cc(F)c(-c2cc(CN3NCc4cnc(N)nc43)c(N3CCC[C@](N)([C@H](O)C(F)F)C3)cn2)cc1F` [IV-24], with more than 1000 nM; and `COc1cc(F)c(-c2cc(Cn3cnnc3)c(N3CCC[C@](N)([C@H](O)C(F)F)C3)cn2)cc1F` [IV-30], with more than 1000 nM.
For `COc1cc(F)c(-c2cc(Cn3ncc4nccnc43)c(N3CCC[C@](N)([C@H](O)C(F)F)C3)cn2)cc1F` [IV-12], the IC50 is more than 1000 nM.
Then `COc1cc(F)c(-c2cc(Cn3ccc4cncnc43)c(N3CCC[C@](N)([C@H](O)C(F)F)C3)cn2)cc1F` [IV-4], with more than 1000 nM.
Consider `COc1cc(F)c(-c2cc(Cn3ncc4ncncc43)c(N3CCC[C@](N)([C@H](O)C(F)F)C3)cn2)cc1F` [IV-9], for which the IC50 was more than 1000 nM.
With `COc1cc(F)c(-c2cc(Cn3cnc4ccccc43)c(N3CCC[C@](N)([C@H](O)C(F)F)C3)cn2)cc1F` [IV-6], the IC50 was more than 1000 nM.
Then `COc1cc(F)c(-c2cc(CN3CCNC3=O)c(N3CCC[C@](N)([C@H](O)C(F)F)C3)cn2)cc1F` [IV-22], with more than 1000 nM.
Then `COc1cc(F)c(-c2cc(CN3CCc4cncnc43)c(N3CCC[C@](N)([C@H](O)C(F)F)C3)cn2)cc1F` [IV-3], with more than 1000 nM; and `COc1cc(F)c(-c2cc(Cn3ccc4nccnc43)c(N3CCC[C@](N)([C@H](O)C(F)F)C3)cn2)cc1F` [IV-13], with more than 1000 nM.
Then `COc1cc(F)c(-c2cc(Cn3ccc4cnccc43)c(N3CCC[C@](N)([C@H](O)C(F)F)C3)cn2)cc1F` [IV-23], with more than 1000 nM.
As to `COc1cc(F)c(-c2cc(Cn3cnc4ncncc43)c(N3CCC[C@](N)([C@H](O)C(F)F)C3)cn2)cc1F` [IV-2], the IC50 is more than 1000 nM.
Then `COc1cc(F)c(-c2cc(Cn3cnnn3)c(N3CCC[C@](N)([C@H](O)C(F)F)C3)cn2)cc1F` [IV-29], with more than 1000 nM; and `COc1cc(F)c(-c2cc(Cn3ccc(N)nc3=O)c(N3CCC[C@](N)([C@H](O)C(F)F)C3)cn2)cc1F` [IV-18], with more than 1000 nM.
As for `COc1cc(F)c(-c2cc(CN3CCC(=O)NC3=O)c(N3CCC[C@](N)([C@H](O)C(F)F)C3)cn2)cc1F` [IV-19], the IC50 is more than 1000 nM.
Then `COc1cc(F)c(-c2cc(Cn3ncc4cnccc43)c(N3CCC[C@](N)([C@H](O)C(F)F)C3)cn2)cc1F` [IV-15], with more than 1000 nM; and `COc1cc(F)c(-c2cc(Cn3cnc4nccnc43)c(N3CCC[C@](N)([C@H](O)C(F)F)C3)cn2)cc1F` [IV-7], with more than 1000 nM.
Consider `COc1cc(F)c(-c2cc(Cn3ccnc3)c(N3CCC[C@](N)([C@H](O)C(F)F)C3)cn2)cc1F` [IV-20], for which the IC50 is more than 1000 nM.
Then `COc1cc(F)c(-c2cc(Cn3ccnn3)c(N3CCC[C@](N)([C@H](O)C(F)F)C3)cn2)cc1F` [IV-21], with more than 1000 nM; and `COc1cc(F)c(-c2cc(Cn3cnc4cncnc43)c(N3CCC[C@](N)([C@H](O)C(F)F)C3)cn2)cc1F` [IV-1], with not above 1000 nM.
For `COc1cc(F)c(-c2cc(Cn3ccc4ncccc43)c(N3CCC[C@](N)([C@H](O)C(F)F)C3)cn2)cc1F` [IV-14], the IC50 is more than 1000 nM.
Then `COc1cc(F)c(-c2cc(CNc3cc4[nH]ccc4cn3)c(N3CCC[C@](N)([C@H](O)C(F)F)C3)cn2)cc1F` [IV-28], with more than 1000 nM.
